The data set is described as follows: Solubility of about 10 wt % photoinitiator in alkoxy-containing curable monomers. The class given is physicochemical. The note with it: about 10 wt % solutions in each of SR9003, SR209, SR399LV and SR454; about room temperature (approximately 22° C. to 27° C.). From the text: The following monomers were used for testing: 1) SR9003 (propoxylated neopentyl glycol diacrylate), 2) SR209 (tetraethylene glycol dimethacrylate), 3) SR399LV (low viscosity dipentaerythritol pentacrylate esters), and 4) SR454 (ethoxylated trimethylolpropane triacrylate esters).

Structures are written as SMILES.

Take `CC(C)(O)C(=O)c1ccc(OCCO)cc1` [IRGACURE® 2959, 4-(2-hydroxyethyloxy)phenyl-(2-hydroxy-2-propyl) ketone]: the solubility in monomers result is “insoluble”.
